Assays:
[1] = system: patients with progressive mCRPC who had not received chemotherapy; conditions: COU-AA-302; cited from earlier work
[2] = system: patients with mCRPC; experiment: PROpel phase III trial: safety, adverse events (CTCAE v.4.03); assay type: in vivo, human
Description: Trial design and interventions. This was a double-blind, placebo-controlled, phase Ill trial. Eligible patients were randomized (1:1) to treatment with abiraterone acetate (1000 mg once daily) in combination with either olaparib (300 mg twice daily) or placebo. All patients received prednisone or prednisolone (5 mg twice daily) as per the abiraterone acetate label requirement. Randomization was stratified by distant metastasis type (bone only/visceral/other) at baseline and by docetaxel treatment at the mHSPC stage of disease (yes or no). Study treatment continued until objective imaging-based progressive disease assessed by investigator (using Response Evaluation Criteria in Solid Tumors [RECIST 1.1] for soft tissue lesions and Prostate Cancer Working Group-3 [PCWG-3] criteria for bone lesions), unacceptable toxicity, or withdrawal of consent. Following objective disease progression, further treatment options were at the discretion of the investigator. Patients could continue study treatment if the investigator believed, that the patient could continue to receive clinical benefit, was not experiencing serious toxicity and there was no available better alternative treatment. Crossover from placebo to receive olaparib in combination with abiraterone acetate was not allowed.
Safety was assessed through reporting of adverse events and serious adverse events (according to Common Terminology Criteria for Adverse Events v.4.03) based on physical examination findings, vital signs, ECG findings and laboratory test results.
Statistical analysis. Efficacy was analyzed for the intention-to-treat population and safety was analyzed for all patients who received any amount of abiraterone acetate, olaparib, or placebo. Patients who received at least one dose of olaparib were included in the abiraterone acetate and olaparib arm.

[3] = male, human, in vivo, 15.7 months

## CC(=O)O[C@H]1CC[C@@]2(C)C(=CC[C@@H]3[C@@H]2CC[C@]2(C)C(c4cccnc4)=CC[C@@H]32)C1 [abiraterone acetate and placebo, (3β)-17-(3-pyridinyl) androsta-5,16-dien-3-yl acetate]
[1]
  median radiographic progression-free survival: 16.5 months
[2]; All Grades
  Anemia, % of patients: (16.4) %
  Anemia, number of patients: 65
  Any adverse event, % of patients: (94.9) %
  Any adverse event, number of patients: 376
  Arthralgia, % of patients: (17.7) %
  Arthralgia, number of patients: 70
  Back pain, % of patients: (18.4) %
  Back pain, number of patients: 73
  Cardiac failure adverse events, % of patients: (1.3) %
  Cardiac failure adverse events, number of patients: 5
  Constipation, % of patients: (13.9) %
  Constipation, number of patients: 55
  Decreased appetite, % of patients: (5.8) %
  Decreased appetite, number of patients: 23
  Diarrhea, % of patients: (9.3) %
  Diarrhea, number of patients: 37
  Dizziness, % of patients: (6.3) %
  Dizziness, number of patients: 25
  Embolic and thrombotic arterial adverse events, % of patients: (2.5) %
  Embolic and thrombotic arterial adverse events, number of patients: 10
  Fatigue or asthenia, % of patients: (28.3) %
  Fatigue or asthenia, number of patients: 112
  Hypertension, % of patients: (16.4) %
  Hypertension, number of patients: 65
  Nausea, % of patients: (12.6) %
  Nausea, number of patients: 50
  Peripheral edema, % of patients: (11.4) %
  Peripheral edema, number of patients: 45
  Urinary tract infection, % of patients: (7.8) %
  Urinary tract infection, number of patients: 31
  Vomiting, % of patients: (9.1) %
  Vomiting, number of patients: 36
[2]; Grade ≥ 3
  Anemia, % of patients: 3.3%
  Anemia, number of patients: 13
  Any adverse event, % of patients: (38.4) %
  Any adverse event, number of patients: 152
  Arthralgia, % of patients: (0.5) %
  Arthralgia, number of patients: 2
  Back pain, % of patients: (1.0) %
  Back pain, number of patients: 4
  COVID-19, % of patients: 2.0%
  COVID-19, cases: 8
  Constipation, % of patients: (0.3) %
  Constipation, number of patients: 1
  Decreased appetite, number of patients: 0
  Diarrhea, % of patients: (0.3) %
  Diarrhea, number of patients: 1
  Dizziness, number of patients: 0
  Fatigue or asthenia, % of patients: (1.5) %
  Fatigue or asthenia, number of patients: 6
  Hypertension, % of patients: (3.3) %
  Hypertension, number of patients: 13
  Nausea, % of patients: (0.3) %
  Nausea, number of patients: 1
  Peripheral edema, % of patients: (0.3) %
  Peripheral edema, number of patients: 1
  Urinary tract infection, % of patients: (1.0) %
  Urinary tract infection, number of patients: 4
  Vomiting, % of patients: (0.3) %
  Vomiting, number of patients: 1
[2]; Grade ≥ 3, listed as Abiraterone and Placebo
  Anemia, % of patients: (3.3) %
[2]; all grades
  COVID-19, % of patients: 4.5%
  COVID-19, cases: 18
[2]; human, in vivo, 15.7 months
  Any serious adverse event, % of patients: (27.0) %
  Any serious adverse event, number of patients: 107
  Death due to an adverse event, % of patients: (4.3) %
  Death due to an adverse event, number of patients: 17
  Discontinuation of abiraterone acetate due to an adverse event, % of patients: (8.8) %
  Discontinuation of abiraterone acetate due to an adverse event, number of patients: 35
  Discontinuation of olaparib/placebo due to an adverse event, % of patients: (7.8) %
  Discontinuation of olaparib/placebo due to an adverse event, number of patients: 31
  Dose reduction of abiraterone acetate due to an adverse event, % of patients: (4.3) %
  Dose reduction of abiraterone acetate due to an adverse event, number of patients: 17
  Dose reduction of olaparib/placebo due to an adverse event, % of patients: (5.6) %
  Dose reduction of olaparib/placebo due to an adverse event, number of patients: 22
  Interruption of abiraterone acetate because of an adverse event, % of patients: (22.0) %
  Interruption of abiraterone acetate because of an adverse event, number of patients: 87
  Interruption of olaparib/placebo because of an adverse event, % of patients: (25.3) %
  Interruption of olaparib/placebo because of an adverse event, number of patients: 100
[2]; in vivo
  Deep-vein thrombosis, patients: three
  pulmonary embolism, cases: seven
[2]; [3]
  Deep-vein thrombosis, % of patients: 0.8%
  new primary cancers, % of patients: 2.5%
  new primary cancers, reports: 10
  pulmonary embolism, % of patients: 1.8%
